Data published in ChEMBL document CHEMBL1201862, “PubChem BioAssay data set” (2004).
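Five concentrations, 48 hours, 96-well plates. The concentration for 50% growth inhibition is given as GI50.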 Calls of active or inactive are those of the source. No stated cut-off is given here; in the data, active = GI50 up to about 1.1 µM and inactive = higher.

What was measured:
Assay in all cases: DTP human tumour cell line panel, 48 h
786-0 = tested on: 786-0
A549 = tested on: A549
ACHN = tested on: ACHN
CCRF-CEM = tested on: CCRF-CEM
HCT-116 = tested on: HCT-116
HCT-15 = tested on: HCT-15
MOLT-4 = tested on: MOLT-4
SF-295 = tested on: SF-295
SK-MEL-2 = tested on: SK-MEL-2
SK-OV-3 = tested on: SK-OV-3
SNB-19 = tested on: SNB-19
SNB-75 = tested on: SNB-75
SW-620 = tested on: SW-620
TK-10 = tested on: TK-10
UACC-257 = tested on: UACC-257
HOP-92 = tested on: HOP-92

## Cc1cc(S(=O)(=O)Nc2nc3cscc3c(=O)n2N)c(S)cc1Cl
786-0
  GI50: 54.6 µM (inactive)
A549
  GI50: 28.2 µM (inactive)
ACHN
  GI50: 56.2 µM (inactive)
CCRF-CEM
  GI50: 62.8 µM (inactive)
HCT-116
  GI50: 36.7 µM (inactive)
HCT-15
  GI50: 35.2 µM
MOLT-4
  GI50: 57.3 µM (inactive)
SF-295
  GI50: 37.9 µM (inactive)
SK-MEL-2
  GI50: 33.4 µM (inactive)
SK-OV-3
  GI50: > 100 µM (inactive)
SNB-19
  GI50: 35.9 µM (inactive)
SNB-75
  GI50: 15 µM (inactive)
SW-620
  GI50: 54.7 µM (inactive)
TK-10
  GI50: > 100 µM (inactive)
UACC-257
  GI50: > 100 µM (inactive)

## CC1(C)OC(CCC#N)CN1C(=O)OCc1ccccc1 (stereo not given)
786-0
  GI50: > 100 µM (inactive)
A549
  GI50: > 100 µM (inactive)
ACHN
  GI50: > 100 µM (inactive)
CCRF-CEM
  GI50: > 100 µM (inactive)
HCT-116
  GI50: > 100 µM (inactive)
HCT-15
  GI50: > 100 µM
HOP-92
  GI50: > 100 µM (inactive)
MOLT-4
  GI50: > 100 µM (inactive)
SF-295
  GI50: > 100 µM (inactive)
SK-MEL-2
  GI50: > 100 µM (inactive)
SK-OV-3
  GI50: > 100 µM (inactive)
SNB-19
  GI50: 9.57 µM (inactive)
SNB-75
  GI50: 3.4 µM (inactive)
SW-620
  GI50: > 100 µM (inactive)
TK-10
  GI50: > 100 µM (inactive)
UACC-257
  GI50: > 100 µM (inactive)

## COC(=O)c1ccc(Cc2cc(Cc3ccc(C(=O)OC)cc3)cc(Cc3ccc(C(=O)OC)cc3)c2)cc1
786-0
  GI50: > 25 µM (inactive)
A549
  GI50: > 25 µM (inactive)
ACHN
  GI50: > 25 µM (inactive)
HCT-116
  GI50: > 25 µM (inactive)
HCT-15
  GI50: > 25 µM
HOP-92
  GI50: > 25 µM (inactive)
MOLT-4
  GI50: > 25 µM (inactive)
SF-295
  GI50: > 25 µM (inactive)
SK-MEL-2
  GI50: > 25 µM (inactive)
SK-OV-3
  GI50: > 25 µM (inactive)
SNB-19
  GI50: > 25 µM (inactive)
SNB-75
  GI50: > 25 µM (inactive)
SW-620
  GI50: > 25 µM (inactive)
TK-10
  GI50: > 25 µM (inactive)
UACC-257
  GI50: > 25 µM (inactive)

## c1ccc(C2CC(N3CCOCC3)=Nc3ccccc3N2)cc1 (stereo not given)
786-0
  GI50: > 100 µM (inactive)
A549
  GI50: > 100 µM (inactive)
ACHN
  GI50: > 100 µM (inactive)
CCRF-CEM
  GI50: > 100 µM (inactive)
HCT-116
  GI50: > 100 µM (inactive)
HCT-15
  GI50: > 100 µM
MOLT-4
  GI50: 70.6 µM (inactive)
SF-295
  GI50: > 100 µM (inactive)
SK-MEL-2
  GI50: > 100 µM (inactive)
SK-OV-3
  GI50: > 100 µM (inactive)
SNB-19
  GI50: > 100 µM (inactive)
SW-620
  GI50: > 100 µM (inactive)
TK-10
  GI50: > 100 µM (inactive)
UACC-257
  GI50: > 100 µM (inactive)

## N#Cc1[nH]c(=S)[nH]c1N
786-0
  GI50: > 100 µM (inactive)
A549
  GI50: > 100 µM (inactive)
ACHN
  GI50: > 100 µM (inactive)
CCRF-CEM
  GI50: > 100 µM (inactive)
HCT-116
  GI50: > 100 µM (inactive)
HCT-15
  GI50: > 100 µM
HOP-92
  GI50: > 100 µM (inactive)
SF-295
  GI50: > 100 µM (inactive)
SK-MEL-2
  GI50: > 100 µM (inactive)
SK-OV-3
  GI50: > 100 µM (inactive)
SNB-19
  GI50: > 100 µM (inactive)
SNB-75
  GI50: > 100 µM (inactive)
SW-620
  GI50: > 100 µM (inactive)
TK-10
  GI50: > 100 µM (inactive)
UACC-257
  GI50: > 100 µM (inactive)

## CC(=O)O[C@H]1C(=O)[C@@]2(C)[C@H]([C@H](OC(=O)c3ccco3)[C@]3(O)C[C@H](OC(=O)[C@H](O)[C@@H](NC(=O)c4ccccc4)c4ccccc4)C(C)=C1C3(C)C)[C@]1(OC(C)=O)CO[C@@H]1C[C@@H]2O
786-0
  GI50: 1.16 µM (inactive)
A549
  GI50: 0.518 µM (active)
ACHN
  GI50: 7.98 µM (inactive)
CCRF-CEM
  GI50: 0.05 µM (active)
HCT-116
  GI50: 0.059 µM (active)
HCT-15
  GI50: 15.1 µM
MOLT-4
  GI50: 0.114 µM (active)
SF-295
  GI50: 1.45 µM (inactive)
SK-MEL-2
  GI50: 0.0594 µM (active)
SK-OV-3
  GI50: 0.287 µM (active)
SNB-19
  GI50: 0.344 µM (active)
SNB-75
  GI50: 0.134 µM (active)
SW-620
  GI50: 0.146 µM (active)
TK-10
  GI50: 8.41 µM (inactive)
UACC-257
  GI50: 0.42 µM (active)

## CC(=O)OCCOCn1c2c(c(=O)[nH]c1=O)CCC2
786-0
  GI50: > 100 µM (inactive)
A549
  GI50: > 100 µM (inactive)
ACHN
  GI50: > 100 µM (inactive)
CCRF-CEM
  GI50: > 100 µM (inactive)
HCT-116
  GI50: > 100 µM (inactive)
HCT-15
  GI50: > 100 µM
HOP-92
  GI50: > 100 µM (inactive)
MOLT-4
  GI50: > 100 µM (inactive)
SF-295
  GI50: > 100 µM (inactive)
SK-MEL-2
  GI50: > 100 µM (inactive)
SNB-19
  GI50: 8.53 µM (inactive)
SNB-75
  GI50: > 100 µM (inactive)
SW-620
  GI50: > 100 µM (inactive)
TK-10
  GI50: > 100 µM (inactive)
UACC-257
  GI50: > 100 µM (inactive)
